Source: ChEMBL document CHEMBL1201862, “PubChem BioAssay data set” (2004)
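Growth conditions: 96-well plates. Treatment: test compound, 48 hours, 5 concentrations. Analysis: linear interpolation between bracketing concentrations; unreached endpoints set to highest concentration. At the GI50, growth is halved.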 Activity calls are given as the source filed them. Cut-off read from the data, not from the text of the source: active = GI50 up to about 1.1 µM and inactive = higher.

Columns and labels:
Assay in all cases: inhibition of tumour cell growth, NCI panel, 48 h
OVCAR-8 = test system: OVCAR-8
SN12C = test system: SN12C
CAKI-1 = test system: CAKI-1
UACC-257 = test system: UACC-257
NCI-H522 = test system: NCI-H522
RPMI-8226 = test system: RPMI-8226
K562 = test system: K562
NCI-H23 = test system: NCI-H23
KM12 = test system: KM12
HCT-15 = test system: HCT-15
U-251 = test system: U-251
COLO 205 = test system: COLO 205
CCRF-CEM = test system: CCRF-CEM
LOX IMVI = test system: LOX IMVI
SK-OV-3 = test system: SK-OV-3
OVCAR-5 = test system: OVCAR-5
MDA-MB-231 = test system: MDA-MB-231
MDA-MB-435 = test system: MDA-MB-435
Malme-3M = test system: Malme-3M

Row | SMILES | GI50 (OVCAR-8) | GI50 (SN12C) | GI50 (CAKI-1) | GI50 (UACC-257) | GI50 (NCI-H522) | GI50 (RPMI-8226) | GI50 (K562) | GI50 (NCI-H23) | GI50 (KM12) | GI50 (HCT-15) [µM] | GI50 (U-251) | GI50 (COLO 205) | GI50 (CCRF-CEM) | GI50 (LOX IMVI) | GI50 (SK-OV-3) | GI50 (OVCAR-5) | GI50 (MDA-MB-231) | GI50 (MDA-MB-435) | GI50 (Malme-3M)
1 | Cc1cc(NCCCCCCCCNc2cc(C)nc3cc(N(C)C)ccc23)c2ccc(N(C)C)cc2n1 | 6.11 µM (inactive) | 1.64 µM (inactive) | 24.3 µM (inactive) | 3.94 µM (inactive) | 2.75 µM (inactive) | 0.736 µM (active) | 0.881 µM (active) | 1.43 µM (inactive) | 2.82 µM (inactive) | 34.8 | 1.56 µM (inactive) | 1.9 µM (inactive) | 5.01 µM (inactive) | 2.37 µM (inactive) |  |  |  |  | 
2 | Cc1cc(C#N)c(Nc2ccccc2[N+](=O)[O-])s1 | 31 µM (inactive) | 19.2 µM (inactive) | 77.8 µM (inactive) | 68.5 µM (inactive) | 19.8 µM (inactive) | 22.6 µM (inactive) | 45.2 µM (inactive) | 26.1 µM (inactive) | 36.1 µM (inactive) | 28.8 | 20.3 µM (inactive) | 29.6 µM (inactive) | 39.3 µM (inactive) |  | 26.4 µM (inactive) | 14.2 µM (inactive) | 24.7 µM (inactive) | 18.8 µM (inactive) | 
3 | CN(C)/C=[N+]1/[C@@H](Cc2ccccc2)C(=O)O[B-]1(F)c1ccccc1 (stereo partly drawn) | > 100 µM (inactive) | > 100 µM (inactive) |  | > 100 µM (inactive) |  | > 100 µM (inactive) | > 100 µM (inactive) | > 100 µM (inactive) |  | > 100 | > 100 µM (inactive) | > 100 µM (inactive) | > 100 µM (inactive) | > 100 µM (inactive) | > 100 µM (inactive) | > 100 µM (inactive) | > 100 µM (inactive) | > 100 µM (inactive) | > 100 µM (inactive)
4 | COc1cc(C2C3=C(NC(=O)C2C#N)c2ccc4ccccc4c2OCC3)cc(OC)c1OC (stereo not drawn) | 86.7 µM (inactive) | 18.1 µM (inactive) | 20.1 µM (inactive) | 56.5 µM (inactive) | 28.9 µM (inactive) | 7.83 µM (inactive) | 44.6 µM (inactive) | 41.3 µM (inactive) | 44.9 µM (inactive) | 41.8 | 16.7 µM (inactive) | 15.4 µM (inactive) | 70.8 µM (inactive) |  | 17.2 µM (inactive) | 17.6 µM (inactive) |  | 41.7 µM (inactive) | 17.8 µM (inactive)
5 | C[N+](C)(C)CC(CC(=O)[O-])C1CC1 (stereo not drawn) | > 100 µM (inactive) | > 100 µM (inactive) | > 100 µM (inactive) | > 100 µM (inactive) | > 100 µM (inactive) | > 100 µM (inactive) | > 100 µM (inactive) | > 100 µM (inactive) | > 100 µM (inactive) | > 100 | > 100 µM (inactive) | > 100 µM (inactive) | > 100 µM (inactive) | > 100 µM (inactive) | > 100 µM (inactive) | > 100 µM (inactive) |  |  | > 100 µM (inactive)
6 | O=C(Cc1nc2c3c(ccc2nc1O)C(=O)c1ccccc1C3=O)C(=O)Nc1ccccc1[N+](=O)[O-] | 17.1 µM (inactive) | > 10 µM (inactive) | 21.5 µM (inactive) | 17.7 µM (inactive) | 5.27 µM (inactive) | 11.4 µM (inactive) | 12.6 µM (inactive) | 18.5 µM (inactive) | 18.7 µM (inactive) | > 10 | 17.7 µM (inactive) | 15.2 µM (inactive) | 2.51 µM (inactive) | 16.5 µM (inactive) | 60 µM (inactive) | 21.5 µM (inactive) |  |  | 19.1 µM (inactive)
7 | COc1cc(/C=N/c2ccc(S(N)(=O)=O)cc2)cc(OC)c1 | > 50 µM (inactive) | > 50 µM (inactive) | > 50 µM (inactive) | > 50 µM (inactive) |  | 28 µM (inactive) | 42.1 µM (inactive) | > 50 µM (inactive) | 30.1 µM (inactive) | 29.6 | > 50 µM (inactive) | > 50 µM (inactive) | 34.3 µM (inactive) | 46.6 µM (inactive) | > 50 µM (inactive) | > 50 µM (inactive) | 20.1 µM (inactive) | 14 µM (inactive) | > 50 µM (inactive)
8 | C=C(C)C1Cc2c(cc(O)c3c(=O)c4c(oc23)C(O)Oc2cc(OC)c(OC)cc2-4)O1 (stereo not drawn) | > 10 µM (inactive) | > 10 µM (inactive) | > 10 µM (inactive) | > 10 µM (inactive) |  | > 10 µM (inactive) | > 10 µM (inactive) | > 10 µM (inactive) | > 10 µM (inactive) | > 10 | > 10 µM (inactive) | > 10 µM (inactive) | > 10 µM (inactive) |  |  | > 10 µM (inactive) | > 10 µM (inactive) | > 10 µM (inactive) | > 10 µM (inactive)
9 | NC(=S)N/N=C(/C(=O)Nc1nc2ccc([N+](=O)[O-])cc2s1)C1C(=O)NC(=S)NC1=O | > 100 µM (inactive) | > 100 µM (inactive) | 45.8 µM (inactive) | > 100 µM (inactive) |  | > 100 µM (inactive) | > 100 µM (inactive) | > 100 µM (inactive) | > 100 µM (inactive) | 42.7 | > 100 µM (inactive) | > 100 µM (inactive) | > 100 µM (inactive) | > 100 µM (inactive) | > 100 µM (inactive) | 55.3 µM (inactive) | > 100 µM (inactive) | > 100 µM (inactive) | 
10 | O=C(CC(=O)N1N=C(N(c2ccccc2)c2ccccc2)CC1c1ccccc1)Nc1ccc(Cl)cc1 (stereo not drawn) | > 100 µM (inactive) | > 100 µM (inactive) | > 100 µM (inactive) | > 100 µM (inactive) | > 100 µM (inactive) | > 100 µM (inactive) | > 100 µM (inactive) | > 100 µM (inactive) | > 100 µM (inactive) | > 100 | > 100 µM (inactive) | > 100 µM (inactive) | > 100 µM (inactive) |  | > 100 µM (inactive) | > 100 µM (inactive) | > 100 µM (inactive) | > 100 µM (inactive) | 
11 | CC(=O)Nc1ccc(OC2=CCN(C)CC2)cc1 | > 100 µM (inactive) | > 100 µM (inactive) | > 100 µM (inactive) | > 100 µM (inactive) |  | > 100 µM (inactive) | > 100 µM (inactive) | > 100 µM (inactive) | > 100 µM (inactive) | > 100 | > 100 µM (inactive) | > 100 µM (inactive) | > 100 µM (inactive) | > 100 µM (inactive) | > 100 µM (inactive) | > 100 µM (inactive) | > 100 µM (inactive) | > 100 µM (inactive) | > 100 µM (inactive)
12 | Cc1[nH]c2[nH]c(=S)nc(NC(N)=S)c2c1Cc1ccccc1 | 51.9 µM (inactive) | > 100 µM (inactive) | 98.6 µM (inactive) | 54.3 µM (inactive) |  | 12.7 µM (inactive) | 25.9 µM (inactive) | 29.7 µM (inactive) | 16.4 µM (inactive) | 58.6 | 43.9 µM (inactive) | 15.1 µM (inactive) | 21.9 µM (inactive) | 19.6 µM (inactive) | 76 µM (inactive) | > 100 µM (inactive) | 28.1 µM (inactive) | 17.3 µM (inactive) | 
13 | Cc1nn(-c2ccccc2)c(C)c1/C=N/NC(=O)c1sc(=S)n(-c2ccc(Cl)cc2)c1N | 32.3 µM (inactive) | 12.2 µM (inactive) | 2.76 µM (inactive) | 14.4 µM (inactive) |  | 2.67 µM (inactive) | 3.52 µM (inactive) | 18.9 µM (inactive) | 8.3 µM (inactive) | 6.56 | 6 µM (inactive) | 4.69 µM (inactive) | 6.01 µM (inactive) | 3.27 µM (inactive) | 3.87 µM (inactive) | 6.44 µM (inactive) | 5.02 µM (inactive) | 9.64 µM (inactive) | 17.5 µM (inactive)
14 | CCCCCCc1ccc(CCCCCCCC(=O)O)o1 | > 100 µM (inactive) | > 100 µM (inactive) | > 100 µM (inactive) | > 100 µM (inactive) |  | 39.6 µM (inactive) | 22.3 µM (inactive) | > 100 µM (inactive) | 70.8 µM (inactive) | 61.5 |  | > 100 µM (inactive) | 48.5 µM (inactive) | > 100 µM (inactive) | > 100 µM (inactive) | > 100 µM (inactive) |  | > 100 µM (inactive) | 
15 | COC(=O)C1=COC(OC2OC(CO)C(O)C(O)C2O)C2C3CN4CCc5c([nH]c6ccccc56)C4(CC12)O3 (stereo not drawn) | > 100 µM (inactive) | > 100 µM (inactive) | < 0.01 µM (active) | > 100 µM (inactive) |  | > 100 µM (inactive) | > 100 µM (inactive) | > 100 µM (inactive) | > 100 µM (inactive) | > 100 | > 100 µM (inactive) | > 100 µM (inactive) |  | > 100 µM (inactive) | > 100 µM (inactive) | > 100 µM (inactive) | > 100 µM (inactive) |  | > 100 µM (inactive)
16 | Cc1cccc(NC(=S)Nc2ccc([N+](=O)[O-])cc2)n1 | > 100 µM (inactive) |  | > 100 µM (inactive) | > 100 µM (inactive) |  | > 100 µM (inactive) | > 100 µM (inactive) | > 100 µM (inactive) | > 100 µM (inactive) | > 100 | > 100 µM (inactive) | > 100 µM (inactive) | > 100 µM (inactive) | > 100 µM (inactive) | > 100 µM (inactive) |  | > 100 µM (inactive) | > 100 µM (inactive) | 
17 | Cc1ccc(S(=O)(=O)N(CC(O)COc2ccccc2)c2ccc(F)cc2F)cc1 (stereo not drawn) | 17.3 µM (inactive) | 15.3 µM (inactive) | 12.2 µM (inactive) | 17.9 µM (inactive) |  | 13.5 µM (inactive) | 34.8 µM (inactive) | 13.9 µM (inactive) | 20 µM (inactive) | 17.1 | 14.4 µM (inactive) | 15.3 µM (inactive) | 18.9 µM (inactive) | 14.2 µM (inactive) | 18.7 µM (inactive) | 18.1 µM (inactive) | 17.4 µM (inactive) | 16.1 µM (inactive) | 16 µM (inactive)
